This is an account of results in patent US6133297A, “Thrombin inhibitors” (Merck & Co., Inc., priority 1998, dated 2000).

Non-standard residues stand in square brackets, D forms with d. Residues, ends and D or L forms follow the SMILES beside them. *: point of attachment. AFC = O=c1cc(C(F)(F)F)c2ccc(N*)cc2o1; pNA = O=[N+]([O-])c1ccc(N*)cc1; Cbz = O=C(OCc1ccccc1)*; Sar = CNCC(=O)O

Usually Ki stands for the dissociation constant of the complex between target and ligand, obtained from inhibition or displacement. Read a high Ki as lower affinity. One may read the Km as the concentration of substrate that gives half-maximal velocity.

One test concerns the target T1, human a-thrombin (Homo sapiens, UniProt P00734).
T1 construct: human a-thrombin
The test is described as follows: In vitro assay for determining proteinase inhibition (thrombin Ki). It counts as biochemical. Conditions: 25° C., 0.05 M TRIS buffer pH 7.4, 0.15 M NaCl, 0.1% PEG. How it is done: In vitro Assay for Determining Proteinase Inhibition
(§1) Assays of human a-thrombin and human trypsin were performed at 25° C. in 0.05 M TRIS buffer pH 7.4, 0.15 M NaCl, 0.1% PEG. Trypsin assays also contained 1 mM CaCl2.
(§2) In certain studies with potent inhibitors (Ki <10 nM) where the degree of inhibition of thrombin was high, a more sensitive activity assay was employed. […] Concentrations of stock solutions of Z-GPR-afc were determined from measurements of absorbance at 380 nm of the 7-amino-4-trifluoromethylcoumarin produced upon complete hydrolysis of an aliquot of the stock solution by thrombin.
Activity assays were performed by diluting a stock solution of substrate at least tenfold to a final concentration <0.5 Km into a solution containing enzyme or enzyme equilibrated with inhibitor. Times required to achieve equilibration between enzyme and inhibitor were determined in control experiments. Initial velocities of product formation in the absence (V0) or presence of inhibitor (Vi) were measured. Assuming competitive inhibition, and that unity is negligible compared Km /[S], […] (where [S], [I], and e respectively represent the total concentrations, of substrate, inhibitor and enzyme), the equilibrium constant (Ki) for dissociation of the inhibitor from the enzyme can be obtained from the dependence of V0 /Vi on [I] shown in equation 1.
As for `CC(C)(C)OC(=O)NCC(=O)N[C@H](CNc1ccncc1)Cc1ccccc1` [Bn 0 Boc H], the Ki was > 1 µM. As for `O=C(N[C@H](CCNc1ccncc1)Cc1ccccc1)[C@H](CO)NS(=O)(=O)c1ccc(Cl)c(Cl)c1` [Bn 1 3,4-di-Cl--PhSO2 -- (S)-CH2 OH], the Ki was < 1 µM. As for `O=C(CNS(=O)(=O)Cc1ccc(Cl)c(Cl)c1)N[C@H](CCNc1ccncc1)Cc1ccccc1` [Bn 1 3,4-di-Cl--BnSO2 -- H], the inhibition constant Ki was < 1 µM.

`CC(C)[C@@H](CCNc1ccncc1)NC(=O)CNS(=O)(=O)c1ccc(Cl)c(Cl)c1` [(CH3)2 CH2 -- 1 3,4-di-Cl--PhSO2 -- H]: the Ki is < 1 µM. In the case of `O=C(CNS(=O)(=O)Cc1ccc(C(F)(F)F)cc1)N[C@H](CCNc1ccncc1)Cc1ccccc1` [Bn 1 4-CF3 --BnSO2 -- H], the inhibition constant (Ki) is < 1 µM. For the compound `O=C(CNS(=O)(=O)c1ccccc1)N[C@H](CNc1ccncc1)Cc1ccccc1` [Bn 0 PhSO2 -- H], the Ki is > 1 µM.

`CS(=O)(=O)CC[C@H](NS(=O)(=O)Cc1ccccc1)C(=O)N[C@H](CCNc1ccncc1)Cc1ccccc1` [Bn 1 BnSO2 -- (S)- CH2 CH2 SO2 CH3]: the Ki was < 1 µM. For the compound `C[C@@H](NS(=O)(=O)Cc1ccccc1)C(=O)N[C@H](CCNc1ccncc1)Cc1ccccc1` [Bn 1 BnSO2 -- (R)-CH3], the inhibition constant (Ki) is > 1 µM. Same read-out and setting: to `O=C(CNS(=O)(=O)c1ccc(Cl)cc1)N[C@H](CNc1ccncc1)Cc1ccccc1` [Bn 0 4-ClPhSO2 -- H] belongs > 1 µM; to `O=C(CNS(=O)(=O)Cc1ccccc1)N[C@H](CCNc1ccncc1)Cc1ccccc1` [Bn 1 BnSO2 -- H], < 1 µM; to `O=C(CNS(=O)(=O)Cc1ccc(Cl)cc1)N[C@H](CCNc1ccncc1)Cc1ccccc1` [Bn 1 4-Cl--BnSO2 -- H], < 1 µM. Same read-out and setting: to `COc1cc(C)c(S(=O)(=O)NCC(=O)N[C@H](CCNc2ccncc2)Cc2ccccc2)c(C)c1C` [Bn 1 4-OCH3-2,3,6-MePhSO2 -- H] belongs < 1 µM; to `CSCC[C@H](NS(=O)(=O)Cc1ccccc1)C(=O)N[C@H](CCNc1ccncc1)Cc1ccccc1` [Bn 1 BnSO2 -- (S)-CH2 CH2 SCH3], < 1 µM; to `C[C@H](NS(=O)(=O)Cc1ccccc1)C(=O)N[C@H](CCNc1ccncc1)Cc1ccccc1` [Bn 1 BnSO2 -- (S)-CH3], < 1 µM. For the compound `CC(C)[C@@H](CCNc1ccncc1)NC(=O)CNS(=O)(=O)Cc1ccccc1` [(CH3)2 CH2 -- 1 BnSO2 -- H], the Ki was > 1 µM. Consider `O=C(CNS(=O)(=O)c1ccccc1)N[C@H](CNc1ccncc1)CC1CCCCC1` [c-hexylCH2 -- 0 PhSO2 -- H], for which the Ki was > 1 µM. The same measure, in the same setting: with `O=C(CNS(=O)(=O)C=Cc1ccccc1)N[C@H](CCNc1ccncc1)Cc1ccccc1` [Bn 1 PhCH=CHSO2 -- H] the figure was < 1 µM; with `NC(Cc1ccc(Cl)cc1)C(=O)N[C@H](CCNc1ccncc1)Cc1ccccc1` (some centres unmarked) [Bn 1 H 4-ClBn--], < 1 µM. On the same count and under the same terms, with `O=C(CNS(=O)(=O)c1ccc(Cl)cc1)N[C@H](CCNc1ccncc1)Cc1ccccc1` [Bn 1 4-Cl--PhSO2 -- H] the figure was < 1 µM; with `O=C(CNS(=O)(=O)c1ccc(Cl)c(Cl)c1)N[C@H](CCNc1ccncc1)Cc1ccccc1` [Bn 1 3,4-di-Cl--PhSO2 -- H], < 1 µM. Turning to `O=C(CNS(=O)(=O)c1ccc2ccccc2c1)N[C@H](CCNc1ccncc1)Cc1ccccc1` [Bn 1 2-naphthSO2 -- H], the Ki was < 1 µM.

For the next test, the system named is human trypsin. The test is described as follows: Hydrolysis of p-nitroanilide substrate by human trypsin (405 nm). It counts as biochemical. Conditions: substrate for human trypsin, 25° C., pH 7.4, 1 mM CaCl2. How it is done:
as §1
Take `CNCC(=O)N1CCC[C@H]1C(=O)N[C@@H](CCCNC(=N)N)C(=O)Nc1ccc([N+](=O)[O-])cc1` [sar-PR-pna, sarcosine-Pro-Arg-p-nitroanilide] (H-[Sar]-Pro-Arg-pNA): the Km was determined as 59 µM.

Another test has as its system thrombin. The test is described as follows: Thrombin catalyzed hydrolysis of fluorogenic substrate (fluorescence at 500 nm). It counts as biochemical, human. Conditions: fluorogenic substrate for thrombin, excitation at 400 nm. How it is done:
as §1, §2
As to `N=C(N)NCCC[C@H](NC(=O)[C@@H]1CCCN1C(=O)CNC(=O)OCc1ccccc1)C(=O)Nc1ccc2c(C(F)(F)F)cc(=O)oc2c1` [Z-GPR-afc, Cbz-Gly-Pro-Arg-7-amino-4-trifluoromethylcoumarin] (Cbz-Gly-Pro-Arg-{AFC}), the Michaelis-Menten constant (Km) stood at 27 µM.
